Data reported in PMC6934184, “Selective DNA-PKcs inhibition extends the therapeutic index of localized radiotherapy and chemotherapy” (The Journal of Clinical Investigation, 2019).

Biological target: T1, CAMKK1 (CAMKKA) (Homo sapiens, UniProt Q8N5S9)
T1 construct: purchased Thermo Fisher Scientific (Life Technologies) SelectScreen
Experiment: SelectScreen LanthaScreen
Format: binding
Conditions: read-out: % displacement
Outline: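 NU5455 was profiled across the SelectScreen Broad panel of kinase activity and binding assays. Z'LYTE reactions such as CSF1R ran at apparent Km ATP, while the Adapta CAMK1 assay used ATP listed as 10. Values are given as percent.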

T1 sequence (Q8N5S9 whole entry): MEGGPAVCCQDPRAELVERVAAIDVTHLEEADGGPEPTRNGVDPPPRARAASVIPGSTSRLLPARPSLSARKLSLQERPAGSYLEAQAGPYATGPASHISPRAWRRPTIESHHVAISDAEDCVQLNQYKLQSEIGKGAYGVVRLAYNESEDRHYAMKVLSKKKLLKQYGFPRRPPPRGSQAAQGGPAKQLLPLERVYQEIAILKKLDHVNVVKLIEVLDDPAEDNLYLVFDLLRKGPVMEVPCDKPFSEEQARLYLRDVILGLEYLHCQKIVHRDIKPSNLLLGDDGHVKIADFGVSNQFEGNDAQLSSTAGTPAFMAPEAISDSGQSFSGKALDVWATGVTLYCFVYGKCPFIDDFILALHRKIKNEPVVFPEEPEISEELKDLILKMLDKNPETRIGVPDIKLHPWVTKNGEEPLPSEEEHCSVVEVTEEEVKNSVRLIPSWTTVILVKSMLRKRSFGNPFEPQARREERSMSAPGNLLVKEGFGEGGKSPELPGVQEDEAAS

## CN(C(=O)CN1CCOCC1)c1ccc2sc3c(-c4cccc5c(=O)cc(N6CC7CCC(C6)O7)oc45)cccc3c2c1 [NU5455]
  inhibition at 1 µM: -3.8%
